Experiment [1] deals with Nucleic Acid. In words: Inhibitory activity against mammalian DNA polymerase beta. It counts as nucleic-acid assay.
The target of experiment [2] is DNA nucleotidylexotransferase (Homo sapiens, UniProt P04053). In words: Inhibitory activity against human terminal deoxynucleotidyltransferase.
Experiment [3] concerns the target Nucleic Acid. In words: Inhibitory activity against mammalian DNA polymerase alpha. The format is nucleic-acid assay.

Each structure is given as a SMILES string.

DNA nucleotidylexotransferase, sequence (P04053 whole entry): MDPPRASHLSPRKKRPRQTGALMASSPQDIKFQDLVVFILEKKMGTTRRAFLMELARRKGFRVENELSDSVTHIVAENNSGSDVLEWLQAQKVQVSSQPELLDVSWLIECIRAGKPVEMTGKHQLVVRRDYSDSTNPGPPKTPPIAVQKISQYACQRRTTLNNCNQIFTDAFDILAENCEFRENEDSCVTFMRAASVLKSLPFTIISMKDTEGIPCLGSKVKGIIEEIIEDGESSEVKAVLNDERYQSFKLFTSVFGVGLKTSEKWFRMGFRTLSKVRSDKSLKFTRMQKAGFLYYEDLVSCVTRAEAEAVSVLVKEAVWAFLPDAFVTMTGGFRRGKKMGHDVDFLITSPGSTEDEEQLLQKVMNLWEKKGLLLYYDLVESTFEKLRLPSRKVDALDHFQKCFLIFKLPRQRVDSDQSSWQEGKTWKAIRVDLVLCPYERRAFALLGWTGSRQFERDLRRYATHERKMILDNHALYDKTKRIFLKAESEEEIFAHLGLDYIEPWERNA

Turning to `CCCCCCCCCCCCCCCC[C@H]1C=CC(=O)[C@@H]1C(=O)OC` (racemic), the values for the IC50 (against Nucleic Acid [1]; in experiment [2]; on Nucleic Acid [3]) were 90 µM, 84 µM and 20 µM, respectively.

As for `CCCCCCCCCCCCCCCC[C@]1(O)C=CC(=O)C1` (racemic), the IC50 (against Nucleic Acid [1]; in experiment [2]; at Nucleic Acid [3]) was more than 200 µM each time.

As for `CCCCCCCCCCCCCCCC[C@]1(OCOC)C=CC(=O)[C@H]1C(=O)OC` (racemic), the figures for the IC50 (against Nucleic Acid [1]; in experiment [2]; against Nucleic Acid [3]) were 9.3 µM, 18 µM and 5.9 µM, respectively.

Take `CCCCCCCCCCCCCCCC[C@]1(O)C=CC(=O)[C@H]1C(=O)OC` (racemic) [UNTENONE A]: the half-inhibitory concentration (IC50) at Nucleic Acid [1] came to 57 µM; in experiment [2], 16 µM; on Nucleic Acid [3], 4.3 µM.

Consider `CCCCCCCCCCCCCCCCC1=C(C(=O)OC)C(=O)CC1`, for which the values for the IC50 (against Nucleic Acid [1]; in experiment [2]; at Nucleic Acid [3]) were 107 µM, 129 µM and 17 µM, respectively.

As to `CCCCCCCCCCCCCCCCC1=C[C@H](C(=O)O)[C@H]2CC(C(=O)O)=C(CCCCCCCCCCCCCCCC)[C@H]2[C@H]1C(=O)OC` (racemic), the IC50 came out at 3.2 µM against Nucleic Acid [1], 2.5 µM in experiment [2] and 1.9 µM against Nucleic Acid [3].

(Values after ChEMBL document CHEMBL1147525, “Structure-activity relationships of untenone A and its derivatives for inhibition of DNA polymerases” (Bioorg Med Chem Lett, 2004).)
